# Data from patent US9663473B2 (Actelion Pharmaceuticals Ltd, priority 2013, dated 2017).
# Molecular target: T1, recombinant human ALX receptor (Homo sapiens, UniProt P25090)
# T1 construct: expressed in transfected cells; host or cells: HEK293 (HEK293-hALXR-Gα16)
# T1 sequence (P25090 1-351): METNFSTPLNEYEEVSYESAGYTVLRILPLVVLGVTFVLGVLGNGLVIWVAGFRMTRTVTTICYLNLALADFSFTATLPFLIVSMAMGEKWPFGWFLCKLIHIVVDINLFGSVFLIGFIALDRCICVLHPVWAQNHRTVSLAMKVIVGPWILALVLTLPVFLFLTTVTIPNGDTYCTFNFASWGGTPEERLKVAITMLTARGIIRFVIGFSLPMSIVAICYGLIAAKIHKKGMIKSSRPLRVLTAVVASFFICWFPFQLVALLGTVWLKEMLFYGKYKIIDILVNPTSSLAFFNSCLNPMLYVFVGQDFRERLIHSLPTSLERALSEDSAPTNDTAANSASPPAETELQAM
# Experiment: Intracellular calcium measurements (FLIPR), ALX receptor agonistic activity
# Assay type: cell-based
# Conditions: HEK293-hALXR-Gα16 cells, Fluo-4 calcium signal, normalized to WKYMVm 10 nM
# In short: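 HEK293 cells co-expressing human ALX receptor and Gα16 were loaded with 1 μM Fluo-4 AM for 60 min at 37° C., then exposed to serially diluted compounds on FLIPR Tetra. Peak fluorescence above baseline (ex 488/em 540 nm) was normalized to 10 nM WKYMVm as high control.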
row,Structure (SMILES),EC50
1,"COc1cc(F)c(CC(NC(=O)NC23CCC(O)(CC2)CC3)c2nc3ccccc3[nH]2)cc1F (stereo not shown) [Example 249, 1-(1-(1H-Benzo[d]imidazol-2-yl)-2-(2,5-difluoro-4-methoxyphenyl)ethyl)-3-(4-hydroxybicyclo[2.2.2]octan-1-yl)urea]",4.2 nM
2,"COc1ccc(CC(NC(=O)NC23CCC(O)(CC2)CC3)c2nc3ccccc3[nH]2)c(F)c1F (stereo not shown) [Example 251, 1-(1-(1H-Benzo[d]imidazol-2-yl)-2-(2,3-difluoro-4-methoxyphenyl)ethyl)-3-(4-hydroxybicyclo[2.2.2]octan-1-yl)urea]",6.6 nM
3,"C[C@]1(O)CC[C@H](NC(=O)N[C@H](Cc2ccc(C(F)(F)F)cc2)c2nc3ccccc3[nH]2)CC1 [Example 256, 1-((R)-1-(1H-Benzo[d]imidazol-2-yl)-2-(4-(trifluoromethyl)phenyl)ethyl)-3-(trans-4-hydroxy-4-methylcyclohexyl)urea]",13 nM
4,"O=C(N[C@H](Cc1ccc(C(F)(F)F)cc1)c1nc2cc(F)ccc2[nH]1)N[C@H]1CC[C@H](O)CC1 [Example 265, 1-((R)-1-(5-Fluoro-1H-benzo[d]imidazol-2-yl)-2-(4-(trifluoromethyl)phenyl)ethyl)-3-(trans-4-hydroxycyclohexyl)urea]",4.7 nM
5,"COc1ccc(C[C@@H](NC(=O)NCc2ccccn2)c2nc3ccccc3[nH]2)cc1 [Example 268, (R)-1-(1-(1H-Benzo[d]imidazol-2-yl)-2-(4-methoxyphenyl)ethyl)-3-(pyridin-2-ylmethyl)urea]",659 nM
6,"COc1ccc(C[C@@H](NC(=O)NC(C)(C)c2ccc(C)cc2)c2nc3ccccc3[nH]2)cc1 [Example 270, (R)-1-(1-(1H-Benzo[d]imidazol-2-yl)-2-(4-methoxyphenyl)ethyl)-3-(2-(p-tolyl)propan-2-yl)urea]",225 nM
7,"COc1ccc(C[C@@H](NC(=O)NC(C)c2ccc(OC(F)F)cc2)c2nc3ccccc3[nH]2)cc1 (stereo partly drawn) [Example 271, 1-((R)-1-(1H-Benzo[d]imidazol-2-yl)-2-(4-methoxyphenyl)ethyl)-3-(1-(4-(difluoromethoxy)phenyl)ethyl)urea]",120 nM
8,"COc1ccc(C[C@@H](NC(=O)NCc2ccc(CN(C)C)cc2)c2nc3ccccc3[nH]2)cc1 [Example 272, (R)-1-(1-(1H-Benzo[d]imidazol-2-yl)-2-(4-methoxyphenyl)ethyl)-3-(4-((dimethylamino)methyl)benzyl)urea]",339 nM
9,"COc1ccc(C[C@@H](NC(=O)NCc2cccc(C(F)(F)F)c2Cl)c2nc3ccccc3[nH]2)cc1 [Example 273, (R)-1-(1-(1H-Benzo[d]imidazol-2-yl)-2-(4-methoxyphenyl)ethyl)-3-(2-chloro-3-(trifluoromethyl)benzyl)urea]",234 nM

# The remaining compounds from weak to strong by EC50, led by results:
row,EC50,Structure (SMILES)
1,471 nM,"COc1ccc(C[C@@H](NC(=O)NCCc2ccc(C(F)(F)F)cc2)c2nc3ccccc3[nH]2)cc1 [Example 269, (R)-1-(1-(1H-Benzo[d]imidazol-2-yl)-2-(4-methoxyphenyl)ethyl)-3-(4-(trifluoromethyl)phenethyl)urea]"
2,27 nM,"O=C(N[C@H](Cc1ccc(C(F)(F)F)cc1)c1nc2ccccc2[nH]1)NC12CCC(O)(CC1)CC2 [Example 255, (R)-1-(1-(1H-Benzo[d]imidazol-2-yl)-2-(4-(trifluoromethyl)phenyl)ethyl)-3-(4-hydroxybicyclo[2.2.2]octan-1-yl)urea]"
3,21 nM,"O=C(NC(Cc1ccc(Br)cc1F)c1nc2ccccc2[nH]1)NC12CCC(O)(CC1)CC2 (stereo not shown) [Example 254, 1-(1-(1H-Benzo[d]imidazol-2-yl)-2-(4-bromo-2-fluorophenyl)ethyl)-3-(4-hydroxybicyclo[2.2.2]octan-1-yl)urea]"
4,14 nM,"O=C(N[C@H](Cc1ccc(C(F)(F)F)cc1)c1nc2cc(F)ccc2[nH]1)NC12CCC(O)(CC1)CC2 [Example 267, (R)-1-(1-(5-Fluoro-1H-benzo[d]imidazol-2-yl)-2-(4-(trifluoromethyl)phenyl)ethyl)-3-(4-hydroxybicyclo[2.2.2]octan-1-yl)urea]"
